Among the data in US20240247080A1, “GLP1/GIP/NPY2 RECEPTOR TRIPLE AGONISTS” (Boehringer Ingelheim International GmbH, priority 2022, published 2024) are EC50 values, retold here.

What all share (assay type): cell-based
What all share (settings): CreLuc reporter gene assay

One assay addresses T1, hGLP1R (Homo sapiens, UniProt P43220).
T1 construct: expressed in transfected cells; host or cells: HEK-293 cells carrying a CRE-luciferase reporter gene
The assay can be described thus: hGLP1R CreLuc reporter gene assay in 0.5% and 100% plasma. In outline: (§1)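 Agonist EC50s came from 8-concentration curves over four decades, fitted by non-linear variable-slope regression of CRE-driven luciferase luminescence. Cells were exposed 4 h at 37 °C, in buffer with 0.5% human plasma or in 100% plasma; GIPR was expressed in CHO cells, GLP-1R and NPY2R in HEK cells.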
(In general: Reporter assays use an easily measured gene product as a stand-in for the process of interest.)

A further assay deals with T2, hGIPR (Homo sapiens, UniProt P48546).
T2 construct: expressed in transfected cells; host or cells: CHO cells carrying a CRE-luciferase reporter gene
T2 sequence (P48546 22-466): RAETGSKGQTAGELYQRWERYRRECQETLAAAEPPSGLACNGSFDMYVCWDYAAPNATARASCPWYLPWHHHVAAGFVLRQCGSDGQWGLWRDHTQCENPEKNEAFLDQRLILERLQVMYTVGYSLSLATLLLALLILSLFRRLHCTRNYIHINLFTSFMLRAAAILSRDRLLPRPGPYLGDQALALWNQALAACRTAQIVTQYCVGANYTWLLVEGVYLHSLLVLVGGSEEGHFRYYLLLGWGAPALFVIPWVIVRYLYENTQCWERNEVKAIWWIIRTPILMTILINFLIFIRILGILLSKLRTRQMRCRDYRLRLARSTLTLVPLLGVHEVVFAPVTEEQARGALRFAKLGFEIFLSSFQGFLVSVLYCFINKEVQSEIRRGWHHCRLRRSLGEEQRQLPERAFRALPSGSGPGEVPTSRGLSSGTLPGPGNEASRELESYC
Description: hGIPR CreLuc reporter gene assay in 0.5% and 100% plasma. In outline:
as §1

A further assay concerns the target T3, hNPY2R (Homo sapiens, UniProt P49146).
T3 construct: expressed in transfected cells; host or cells: HEK-293 cells carrying a CRE-luciferase reporter gene
T3 sequence (P49146 1-381): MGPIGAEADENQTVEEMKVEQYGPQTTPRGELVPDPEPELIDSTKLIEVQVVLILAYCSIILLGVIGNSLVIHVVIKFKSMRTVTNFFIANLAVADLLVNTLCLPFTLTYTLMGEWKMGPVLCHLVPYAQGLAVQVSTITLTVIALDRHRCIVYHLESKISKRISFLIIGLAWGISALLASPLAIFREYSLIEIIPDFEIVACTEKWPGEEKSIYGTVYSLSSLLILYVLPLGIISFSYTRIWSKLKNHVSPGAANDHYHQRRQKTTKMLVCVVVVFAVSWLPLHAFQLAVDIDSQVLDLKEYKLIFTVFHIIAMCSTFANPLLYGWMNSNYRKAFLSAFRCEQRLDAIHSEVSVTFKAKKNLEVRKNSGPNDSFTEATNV
Description: hNPY2R CreLuc reporter gene assay in 0.5% and 100% plasma. In outline: as §1

Where [1] appears, read: 0.5% human plasma, read-out: hGLP1R 0.5% hP.
[2] abbreviates: 0.5% human plasma, read-out: hGIPR 0.5% hP.
[3] abbreviates: 0.5% human plasma, read-out: hNPY2R 0.5% hP.
Where [4] appears, read: 100% human plasma, read-out: hNPY2R 100% hP.
[5] abbreviates: 100% human plasma, read-out: hGLP1R 100% hP.
Setting [6] is: 100% human plasma, read-out: hGIPR 100% hP.

Like-named read-outs stand apart in the source and are kept apart here. Starred links: 1 amine or outer side, 2 acyl side, 3 side chain; linkers in the order of their positions; H or OH if unused. Non-standard residues stand in square brackets, D forms with d. Groups on a side chain read outwards from the residue. *: point of attachment. C20 diacid = O=C(O)CCCCCCCCCCCCCCCCCCC(=O)*; C18 diacid = O=C(O)CCCCCCCCCCCCCCCCC(=O)*; γGlu = O=C(O)[C@H](CCC(=O)[*:2])N[*:1]; εLys = N[C@@H](CCCCN[*:1])C(=O)[*:2]; AEEA = NCCOCCOCC(=O)O; Aib = CC(C)(N)C(=O)O

T1 sequence (P43220 24-463): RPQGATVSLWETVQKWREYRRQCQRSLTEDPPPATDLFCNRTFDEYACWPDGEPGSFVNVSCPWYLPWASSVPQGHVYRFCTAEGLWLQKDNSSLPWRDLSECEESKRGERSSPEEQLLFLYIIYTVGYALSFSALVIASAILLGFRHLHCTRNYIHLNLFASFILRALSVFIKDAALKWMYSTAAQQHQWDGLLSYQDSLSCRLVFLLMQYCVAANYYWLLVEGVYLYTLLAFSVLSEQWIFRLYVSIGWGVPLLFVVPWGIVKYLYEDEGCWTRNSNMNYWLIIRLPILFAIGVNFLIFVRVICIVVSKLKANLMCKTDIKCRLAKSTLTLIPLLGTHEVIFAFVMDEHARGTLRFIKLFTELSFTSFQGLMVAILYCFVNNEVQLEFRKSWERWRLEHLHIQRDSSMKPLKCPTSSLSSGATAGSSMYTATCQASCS

With “H-Y[Aib]EGTFTSDYSI[Aib]LEKQAQ[Aib]AFVQWLIK([AEEA-AEEA-γGlu-γGlu-γGlu-γGlu-γGlu-C20 diacid])GGPSEPASLRHYYNWLTRQRY-NH2 [Compound 111, Y-Aib-E-G-T-F-T-S-D-Y-S-I-Aib-L-E-K-Q-A-Q-Aib-A-F-V-Q-W-L-I-K(1,3)-GGPSEPASLRHYYNWLTRQRY-NH2.C20DA-gGlu-gGlu-gGlu-gGlu-gGlu-OEG-OEG(1,2)]”, the EC50 on hGLP1R (setting [1]) was determined as 0.12 nM; at hGIPR (setting [2]) it was 0.55 nM; on hNPY2R (setting [3]), 13.4 nM; on hNPY2R (setting [4]), 36.8 nM.

For “H-Y[Aib]EGTFTSDYSI[Aib]LEKQAQ[Aib]AFVQWLIK([AEEA-AEEA-γGlu-γGlu-γGlu-γGlu-γGlu-C20 diacid])GGPSSGASLRHYYNWLTRQRY-NH2 [Compound 112, Y-Aib-E-G-T-F-T-S-D-Y-S-I-Aib-L-E-K-Q-A-Q-Aib-A-F-V-Q-W-L-I-K(1,3)-GGPSSGASLRHYYNWLTRQRY-NH2.C20DA-gGlu-gGlu-gGlu-gGlu-gGlu-OEG-OEG(1,2)]”, the EC50 turned out to be 0.06 nM at hGLP1R (setting [1]); 1.7 nM at hGLP1R (setting [5]); 0.19 nM on hGIPR (setting [2]); 0.83 nM on hGIPR (setting [6]); 27.6 nM on hNPY2R (setting [4]).

With “H-Y[Aib]EGTFTSDYSI[Aib]LEKQAQ[Aib]AFVQWLIK([Glu-Glu-Glu-Glu-C18 diacid])GGPSEGASLRHYYNWLTRQRY-NH2 [Compound 281, Y-Aib-E-G-T-F-T-S-D-Y-S-I-Aib-L-E-K-Q-A-Q-Aib-A-F-V-Q-W-L-I-K(1,3)-GGPSEGASLRHYYNWLTRQRY-NH2.C18DA-E-E-E-E(1,2)]”, the EC50 was found to be 0.07 nM at hGLP1R (setting [1]); 1.78 nM at hGLP1R (setting [5]); 0.28 nM on hGIPR (setting [2]); 0.69 nM on hGIPR (setting [6]); 23 nM on hNPY2R (setting [3]).

Turning to “H-Y[Aib]EGTFTSDYSI[Aib]LEKQAQ[Aib]AFVQWLIK([γGlu-γGlu-γGlu-γGlu-γGlu-C18 diacid])GGPESGASLRHYYNWLTRQRY-NH2 [Compound 53, Y-Aib-E-G-T-F-T-S-D-Y-S-I-Aib-L-E-K-Q-A-Q-Aib-A-F-V-Q-W-L-I-K(1,3)-GGPESGASLRHYYNWLTRQRY-NH2.C18DA-gGlu-gGlu-gGlu-gGlu-gGlu(1,2)]”, the EC50 was 0.09 nM on hGLP1R (setting [1]); 0.13 nM on hGIPR (setting [2]); 1.38 nM on hGIPR (setting [6]); 13.2 nM at hNPY2R (setting [3]); 50.6 nM at hNPY2R (setting [4]).

Turning to “H-Y[Aib]EGTFTSDYSI[Aib]LEKQAQ[Aib]AFVQWLIK([γGlu-γGlu-γGlu-γGlu-γGlu-C18 diacid])GGPESPASLRHYYNWLTRQRY-NH2 [Compound 12, Y-Aib-E-G-T-F-T-S-D-Y-S-I-Aib-L-E-K-Q-A-Q-Aib-A-F-V-Q-W-L-I-K(1,3)-GGPESPASLRHYYNWLTRQRY-NH2.C18DA-gGlu-gGlu-gGlu-gGlu-gGlu(1,2)]”, the EC50 at hGLP1R (setting [1]) is 0.11 nM; at hGLP1R (setting [5]), 4.76 nM; at hGIPR (setting [2]) it was 0.14 nM; at hNPY2R (setting [3]), 11.9 nM; at hNPY2R (setting [4]) it was 45.8 nM.

“H-Y[Aib]EGTFTSDYSI[Aib]LEKQAQ[Aib]AFVQWLIK([γGlu-γGlu-γGlu-γGlu-γGlu-C18 diacid])GGPSEGASLRHYYNWLTRQRY-NH2 [Compound 250, Y-Aib-E-G-T-F-T-S-D-Y-S-I-Aib-L-E-K-Q-A-Q-Aib-A-F-V-Q-W-L-I-K(1,3)-GGPSEGASLRHYYNWLTRQRY-NH2.C18DA-gGlu-gGlu-gGlu-gGlu-gGlu(1,2)]”: the EC50 on hGLP1R (setting [1]) was determined as 0.08 nM; on hGIPR (setting [2]), 0.2 nM; on hGIPR (setting [6]), 1.25 nM; on hNPY2R (setting [3]), 12.2 nM.

For “H-Y[Aib]EGTFTSDYSI[Aib]LEKQAQ[Aib]AFVQWLIK([γGlu-γGlu-γGlu-γGlu-γGlu-C20 diacid])GGPESPASLRHYYNWLTRQRY-NH2 [Compound 11, Y-Aib-E-G-T-F-T-S-D-Y-S-I-Aib-L-E-K-Q-A-Q-Aib-A-F-V-Q-W-L-I-K(1,3)-GGPESPASLRHYYNWLTRQRY-NH2.C20DA-gGlu-gGlu-gGlu-gGlu-gGlu(1,2)]”, the EC50 at hGLP1R (setting [1]) was determined as 0.11 nM; on hGIPR (setting [2]), 0.17 nM; on hNPY2R (setting [3]), 10.3 nM.

Take “H-Y[Aib]EGTFTSDYSI[Aib]LEKQAQ[Aib]AFVQWLIK([γGlu-γGlu-γGlu-γGlu-γGlu-γGlu-C18 diacid])GGPSEGASLRHYYNWLTRQRY-NH2 [Compound 252, Y-Aib-E-G-T-F-T-S-D-Y-S-I-Aib-L-E-K-Q-A-Q-Aib-A-F-V-Q-W-L-I-K(1,3)-GGPSEGASLRHYYNWLTRQRY-NH2.C18DA-gGlu-gGlu-gGlu-gGlu-gGlu-gGlu(1,2)]”: the EC50 at hGLP1R (setting [1]) is 0.1 nM; at hGLP1R (setting [5]) it was 2.59 nM; at hGIPR (setting [2]), 0.29 nM; at hGIPR (setting [6]), 1.25 nM; on hNPY2R (setting [4]), 33.5 nM.

As to “H-Y[Aib]EGTFTSDYSI[Aib]LEKQAQ[Aib]AFVQWLIK([εLys-γGlu-γGlu-γGlu-γGlu-γGlu-C18 diacid])GGPEEGASLRHYYNWLTRQRY-NH2 [Compound 143, Y-Aib-E-G-T-F-T-S-D-Y-S-I-Aib-L-E-K-Q-A-Q-Aib-A-F-V-Q-W-L-I-K(1,3)-GGPEEGASLRHYYNWLTRQRY-NH2.C18DA-gGlu-gGlu-gGlu-gGlu-gGlu-eLys(1,2)]”, the EC50 was 0.13 nM at hGLP1R (setting [1]); 4.24 nM at hGLP1R (setting [5]); 0.22 nM at hGIPR (setting [2]); 13.1 nM on hNPY2R (setting [3]); 42.2 nM at hNPY2R (setting [4]).

Turning to “H-Y[Aib]EGTFTSDYSI[Aib]LEKQAQ[Aib]AFVQWLIK([εLys-γGlu-γGlu-γGlu-γGlu-γGlu-C18 diacid])GGPESGASLRHYYNWLTRQRY-NH2 [Compound 60, Y-Aib-E-G-T-F-T-S-D-Y-S-I-Aib-L-E-K-Q-A-Q-Aib-A-F-V-Q-W-L-I-K(1,3)-GGPESGASLRHYYNWLTRQRY-NH2.C18DA-gGlu-gGlu-gGlu-gGlu-gGlu-eLys(1,2)]”, the EC50 was 0.08 nM on hGLP1R (setting [1]); 1.69 nM at hGLP1R (setting [5]); 0.33 nM on hGIPR (setting [2]); 0.35 nM on hGIPR (setting [6]); 23.1 nM on hNPY2R (setting [4]).

Take “H-Y[Aib]EGTFTSDYSI[Aib]LEKQAQ[Aib]AFVQWLIK([εLys-γGlu-γGlu-γGlu-γGlu-γGlu-C18 diacid])GGPSEGASLRHYYNWLTRQRY-NH2 [Compound 267, Y-Aib-E-G-T-F-T-S-D-Y-S-I-Aib-L-E-K-Q-A-Q-Aib-A-F-V-Q-W-L-I-K(1,3)-GGPSEGASLRHYYNWLTRQRY-NH2.C18DA-gGlu-gGlu-gGlu-gGlu-gGlu-eLys(1,2)]”: the EC50 on hGLP1R (setting [1]) amounted to 0.07 nM; on hGIPR (setting [2]), 0.12 nM; at hGIPR (setting [6]), 1.18 nM; on hNPY2R (setting [4]), 27.6 nM.

Take “H-Y[Aib]EGTFTSDYSI[Aib]LEKQAQ[Aib]AFVQWLIK([εLys-γGlu-γGlu-γGlu-γGlu-γGlu-C18 diacid])GGPSEPASLRHYYNWLTRQRY-NH2 [Compound 148, Y-Aib-E-G-T-F-T-S-D-Y-S-I-Aib-L-E-K-Q-A-Q-Aib-A-F-V-Q-W-L-I-K(1,3)-GGPSEPASLRHYYNWLTRQRY-NH2.C18DA-gGlu-gGlu-gGlu-gGlu-gGlu-eLys(1,2)]”: the EC50 turned out to be 0.08 nM at hGLP1R (setting [1]), 0.07 nM at hGIPR (setting [2]), 11 nM at hNPY2R (setting [3]) and 21 nM on hNPY2R (setting [4]).

On to “H-Y[Aib]EGTFTSDYSI[Aib]LEKQAQ[Aib]AFVQWLIK([εLys-γGlu-γGlu-γGlu-γGlu-γGlu-C20 diacid])GGPSEGASLRHYYNWLTRQRY-NH2 [Compound 242, Y-Aib-E-G-T-F-T-S-D-Y-S-I-Aib-L-E-K-Q-A-Q-Aib-A-F-V-Q-W-L-I-K(1,3)-GGPSEGASLRHYYNWLTRQRY-NH2.C20DA-gGlu-gGlu-gGlu-gGlu-gGlu-eLys(1,2)]”, for which the EC50 on hGLP1R (setting [1]) was determined as 0.13 nM; at hGIPR (setting [2]), 0.32 nM; at hGIPR (setting [6]), 1.72 nM; at hNPY2R (setting [4]), 28.8 nM.
